Ends that are not written are not given here.
Test system: PBMC of healthy adult blood donors from Colombo, Sri Lanka
Experiment: Ex vivo IFNγ ELISPOT, HLA-matched PBMC of Sri Lankan blood donors
Type: cell-based, human
Design: Total Response per epitope: unit not given here
Conditions: for # donors responded: number of donors responding to the epitope; for T cell response [SFC]: ex vivo IFNγ SFC/10^6 PBMC; for # of responders: responding donors, HLA allele(s)
[1] = restricting HLA allele and serotype as given
[2] = total over responding donors, restricting HLA allele and serotype as given
[3] = IFNγ ELISPOT response summed over responding donors, per epitope
[4] = HLA-matched PBMC, proteome-wide screen

Compound	# donors responded [1]	Total Response per epitope [2]	T cell response [SFC] (per epitope)	# of responders	Total Response per epitope [3]	# donors responded [4]
CC(C)C[C@H](NC(=O)[C@H](CC(C)C)NC(=O)[C@@H](NC(=O)[C@H](C)NC(=O)[C@H](C)N)C(C)C)C(=O)N[C@@H](CC(C)C)C(=O)N[C@H](C(=O)N[C@H](C(=O)N[C@@H](Cc1c[nH]cn1)C(=O)N[C@@H](Cc1ccc(O)cc1)C(=O)O)[C@@H](C)O)C(C)C	2	393.3	–	–	–	–
CC(C)C[C@H](NC(=O)[C@@H](NC(=O)[C@@H](NC(=O)[C@H](CC(C)C)NC(=O)[C@@H]1CCCN1C(=O)CNC(=O)[C@@H](NC(=O)[C@H](C)N)[C@@H](C)O)[C@@H](C)O)[C@@H](C)O)C(=O)N[C@@H](Cc1c[nH]c2ccccc12)C(=O)O	1	275.0	275	1	–	–
CSCC[C@H](NC(=O)[C@H](CCSC)NC(=O)[C@H](CC(C)C)NC(=O)[C@@H](N)CS)C(=O)N[C@@H](CCSC)C(=O)N[C@@H](CC(C)C)C(=O)N1CCC[C@H]1C(=O)N[C@@H](C)C(=O)N[C@H](C(=O)N[C@@H](CC(C)C)C(=O)O)[C@@H](C)O	1	78.3	–	–	–	–
CC(C)C[C@H](NC(=O)[C@@H](NC(=O)[C@H](C)NC(=O)[C@H](CCC(=O)O)NC(=O)CNC(=O)[C@H](CCC(N)=O)NC(=O)[C@@H](NC(=O)[C@@H]1CCCN1C(=O)[C@@H](N)CS)[C@@H](C)O)[C@@H](C)O)C(=O)O	1	295.0	–	–	–	–
CC(C)C[C@H](NC(=O)[C@@H](NC(=O)[C@H](C)NC(=O)[C@H](CCC(=O)O)NC(=O)CNC(=O)[C@H](CCC(N)=O)NC(=O)[C@@H](NC(=O)[C@@H]1CCCN1C(=O)[C@@H](N)CS)[C@@H](C)O)C(C)C)C(=O)O	2	385.0	–	–	–	–
CC[C@H](C)[C@H](NC(=O)[C@@H]1CCCN1C(=O)[C@@H](N)CC(=O)O)C(=O)N1CCC[C@H]1C(=O)N[C@@H](Cc1ccc(O)cc1)C(=O)N[C@@H](CC(=O)O)C(=O)N1CCC[C@H]1C(=O)N[C@@H](CCCCN)C(=O)N[C@@H](Cc1ccccc1)C(=O)O	1	38.3	–	–	–	–
CC(C)[C@H](NC(=O)[C@H](C)NC(=O)[C@@H](N)CCC(=O)O)C(=O)N[C@@H](CCC(=O)O)C(=O)N[C@@H](CC(=O)O)C(=O)N[C@@H](CO)C(=O)N[C@@H](CCCNC(=N)N)C(=O)N[C@@H](Cc1ccccc1)C(=O)N[C@@H](Cc1c[nH]c2ccccc12)C(=O)N[C@@H](CCC(=O)O)C(=O)O	1	248.3	–	–	–	–
CC(C)C[C@H](NC(=O)[C@H](CCC(N)=O)NC(=O)CNC(=O)[C@@H]1CCCN1C(=O)[C@@H](N)CCC(=O)O)C(=O)N[C@@H](CCCCN)C(=O)N[C@@H](CC(C)C)C(=O)N[C@@H](CC(N)=O)C(=O)N[C@@H](Cc1c[nH]c2ccccc12)C(=O)N[C@@H](Cc1ccccc1)C(=O)O	5	581.7	–	–	–	–
CSCC[C@H](NC(=O)[C@H](CC(C)C)NC(=O)[C@H](CCCCN)NC(=O)[C@H](CCCCN)NC(=O)[C@@H](NC(=O)CNC(=O)[C@H](CCC(=O)O)NC(=O)[C@H](CCCCN)NC(=O)[C@@H]1CCCN1C(=O)[C@@H](N)CCC(=O)O)[C@@H](C)O)C(=O)O	3	928.3	–	–	–	–
CC(C)C[C@H](NC(=O)[C@H](CCCNC(=N)N)NC(=O)[C@@H]1CCCN1C(=O)[C@@H](N)CC(N)=O)C(=O)N[C@@H](CS)C(=O)N[C@H](C(=O)N[C@@H](CCCNC(=N)N)C(=O)N[C@@H](CCC(=O)O)C(=O)N[C@@H](CCC(=O)O)C(=O)N[C@@H](Cc1ccccc1)C(=O)O)[C@@H](C)O	1	365.0	365	1	–	–
CC[C@H](C)[C@H](NC(=O)[C@H](CC(C)C)NC(=O)[C@H](CS)NC(=O)[C@H](CC(C)C)NC(=O)[C@H](CC(C)C)NC(=O)[C@@H](N)[C@@H](C)O)C(=O)N1CCC[C@H]1C(=O)N[C@H](C(=O)N[C@H](C(=O)O)C(C)C)[C@@H](C)O	–	53.3	–	–	–	–
CC[C@H](C)[C@H](NC(=O)[C@H](CCCCN)NC(=O)[C@H](CO)NC(=O)[C@H](CO)NC(=O)CN)C(=O)N[C@@H](CCCNC(=N)N)C(=O)N[C@@H](Cc1c[nH]c2ccccc12)C(=O)N[C@H](C(=O)N[C@H](C(=O)N[C@@H](CCC(=O)O)C(=O)O)C(C)C)[C@@H](C)CC [GSSKIRWIVE]	2	111.7	–	–	–	–
CSCC[C@H](NC(=O)[C@H](CC(C)C)NC(=O)[C@@H](NC(=O)[C@H](CCC(=O)O)NC(=O)[C@@H](N)CC(C)C)[C@@H](C)O)C(=O)N[C@@H](CC(C)C)C(=O)N[C@H](C(=O)N[C@@H](C)C(=O)N[C@@H](CC(C)C)C(=O)O)C(C)C [LETLMLVAL]	–	–	–	–	103.3	1
CSCC[C@H](N)C(=O)N[C@H](C(=O)N[C@@H](CCC(N)=O)C(=O)N[C@@H](CCCCN)C(=O)N[C@@H](C)C(=O)N[C@@H](CCCNC(=N)N)C(=O)N[C@@H](CC(N)=O)C(=O)N[C@@H](C)C(=O)N[C@@H](CC(C)C)C(=O)O)[C@@H](C)O [MTQKARNAL]	–	–	–	–	268.3	2
CSCC[C@H](NC(=O)[C@H](C)NC(=O)CNC(=O)[C@H](CCC(=O)O)NC(=O)[C@@H](N)CCC(N)=O)C(=O)N[C@@H](Cc1c[nH]cn1)C(=O)N[C@@H](CO)C(=O)N[C@@H](C)C(=O)N[C@@H](CC(C)C)C(=O)O [QEGAMHSAL]	–	–	–	–	48.3	1
CSCC[C@H](NC(=O)[C@H](C)NC(=O)CNC(=O)[C@H](CCC(=O)O)NC(=O)[C@@H](N)CCC(N)=O)C(=O)N[C@@H](Cc1c[nH]cn1)C(=O)N[C@H](C(=O)N[C@@H](C)C(=O)N[C@@H](CC(C)C)C(=O)O)[C@@H](C)O [QEGAMHTAL]	–	–	–	–	40.0	1

Compound	# donors responded [1]	Total Response per epitope [2]	T cell response [SFC] (per epitope)	# of responders	Total Response per epitope [3]	# donors responded [4]
ATGPVLTLW	2	390.0	390	2	–	–
CLIPTAMAF	1	66.7	67	1	–	–
DPRRCLKPV	2	556.7	–	–	–	–
DTTPFGOOR	–	–	3260	8	–	–
EERDIPERSW	1	133.3	–	–	–	–
EPISYDPKF	1	340.0	–	–	–	–
FAGPVSQHNY	3	428.3	–	–	–	–
FLMVLLIPEP	1	28.3	–	–	–	–
FTILALFLAH	8	1715.0	1715	8	–	–
GAMLFLISGK	1	23.3	–	–	–	–
GEFRLRGEQR	3	1373.3	1373	3	–	–
GFFLRKLTSR	1	81.7	–	–	–	–
GPLVAGGLL	3	748.3	–	–	–	–
HPGAGKTKRY	10	3046.7	3047	10	–	–
IANOATVLM	–	–	1518	7	–	–
IANQAAILM	1	58.3	–	–	–	–

From patent US10308689B2, “Dengue virus (DV) polypeptide sequences, T cell epitopes and methods and uses thereof” (LA JOLLA INSTITUTE FOR ALLERGY AND IMMUNOLOGY, priority 2010, dated 2019)
